“Also recorded” adds a separate entry of the source.
Tests used:
tumors = conditions: clinical study; cited from earlier work
[1] = mouse, rat and dog; cited from earlier work
human xenograft tumor = conditions: mice; cited from earlier work
[2] = tested on: lymphoma, lung cancer and sarcoma; conditions: cited from earlier work
4T1 pulmonary metastases = experiment: Neovascular density (anti-Cav1 staining) within 4T1 lung metastases after treatment; format: in vivo, mouse
Description: Pulmonary metastasis studies with the 4T1 mouse mammary carcinoma-derived cell line (Aslakson et al. (1992) Cancer Res., 52:1399-1405) were carried out by injecting 1×10^4 cells in 50 μl serum free medium into the number 4 mammary fatpad to establish an orthotopic tumor which then spontaneously metastasized to the lungs. For visualization of the pulmonary metastasis burden, lungs were inflated with 15% India ink dye, washed, and bleached in Fekete's solution. For immunofluorescence detection of pulmonary metastasis vasculature, lungs were inflated with 50% OCT and frozen in OCT blocks followed by 4 μm sectioning using the CryoJane tape transfer system. Blood vessels within the metastatic nodules were visualized by fluorescence staining with rabbit anti-mouse Caveolin1 polyclonal antibody (Cat. #3238S, Cell Signaling Technology, Boston, MA). For quantitatively evaluating vessel density within the metastatic nodules, multiple fields were acquired per mouse lung on a Zeiss inverted microscope with 40× objective. The pixel density corresponding to the positive Cav1 signal per field was determined in Adobe Photoshop, and these values were then averaged to determine the overall mean value per mouse. For IDO1 inhibitor treatment studies, mice bearing established metastases at 3.5 weeks following 4T1 engraftment were administered 50 mg/kg epacadostat (ChemieTek; Indianapolis, IN) in 100 μl vehicle (3% N,N-dimethylacetamide, 10% 2-hydroxylpropyl-β-cyclodextrin) by oral gavage b.i.d. (twice daily) over 72 hours at which point the animals were euthanized for analysis. Positive control animals were administered a single intraperitoneal (i.p.) injection of 50 mg/kg cyclophosphamide (Baxter; Deefield, IL) in 100 μl sterile saline and euthanized 72 hours later for analysis. […]

[3] = tested on: large, vascularized tumors; conditions: requires IFNγ receptor expression on normal host cells; cited from earlier work
4T1 lung metastases = experiment: Hypoxyprobe staining of hypoxic regions within 4T1 lung metastases; format: in vivo, mouse; conditions: epacadostat 50 mg/kg oral gavage b.i.d. over 72 hours
Description: For IDO1 inhibitor treatment studies looking at tumor hypoxia, mice bearing established metastases at 3.5 weeks following 4T1 engraftment were administered either 50 mg/kg epacadostat (ChemieTek; Indianapolis, IN) in 100 μl vehicle (3% N,N-dimethylacetamide, 10% 2-hydroxylpropyl-β-cyclodextrin) by oral gavage b.i.d. (twice daily) over 72 hours, or 400 mg/kg indoximod (Sigma-Aldrich; St. Louis, MO) in 100 μl vehicle (0.5% Tween 80/0.5% Methylcellulose v/v in water) by oral gavage b.i.d. (twice daily) over 72 hours.
For visualizing regions of hypoxia within 4T1 lung metastases, the Hypoxyprobe™ Green Kit (Hydroxyprobe, Inc.; Burlington, MA) was used as per the manufacturer's instructions. 1 hour prior to euthanasia, mice were injected intravenously with 60 mg/kg Hypoxyprobe™ (pimonidazole HCl). Lung sections were stained with the FITC-conjugated mouse IgG1 monoclonal antibody (4.3.11.3) provided by the supplier that specifically binds to protein adducts of pimonidazole.

[4] = tested on: allogeneic mouse concepti; conditions: in vivo; cited from earlier work

For `Cn1cc(C[C@@H](N)C(=O)O)c2ccccc21` [indoximod, 1-methyl-D-tryptophan], the “sensitization of tumors to salvage chemotherapy” value (tumors) is given as “appeared to sensitize tumors to salvage chemotherapy”.

For `Cc1cccc(CC(=O)N2CCc3c2ccc(-c2cn(C)c4ncnc(N)c24)c3F)n1` [GSK2656157], the blood clearance [1] is listed as “low to moderate”, the oral bioavailability [1] is listed as “good” and the “human xenograft tumor growth” value (human xenograft tumor) is listed as “delay of various human xenograft tumor growths”. For the same compound, the “weight loss and effect on pancreatic insulin production” value (human xenograft tumor) was “without significant weight loss and/or effect on pancreatic insulin production”.

In the case of `C=CC1=C(C)c2cc3[n-]c(cc4[n-]c(cc5nc(cc1n2)C(C)=C5C=C)c(C)c4CCC(=O)O)c(CCC(=O)O)c3C.[Zn+2]` [ZnPPIX, zinc protoporphyrin IX], the “antitumor effect in mice” value [2] is given as “effective in reducing lymphoma, lung cancer and sarcoma”.

For `O=P1(N(CCCl)CCCl)NCCCO1` (centres unmarked) [cyclophosphamide], the “metastatic tumor neovascularization, positive control (in words)” value (4T1 pulmonary metastases; single i.p. injection of 50 mg/kg, evaluated 72 hours later, compared with the effect of epacadostat) is listed as “comparable” and the tumor rejection [3] is listed as “immune-dependent rejection of large, vascularized tumors”.

For `NS(=O)(=O)NCCNc1nonc1C(=NO)Nc1ccc(F)c(Br)c1` [epacadostat], the “reduction in metastatic tumor neovascularization relative to vehicle alone” value (4T1 pulmonary metastases; 50 mg/kg oral gavage b.i.d. over 72 hours, established 4T1 pulmonary metastases 3.5 weeks after engraftment, P<0.01) was 3.2 fold, the “metastatic tumor neovascularization relative to vehicle (in words)” value (4T1 pulmonary metastases; epacadostat 50 mg/kg oral gavage b.i.d. over 72 hours, established 4T1 pulmonary metastases) was “reduced level of neovascularization; also recorded: clear reduction in metastatic tumor neovascularization” and the “hypoxia in metastatic tumor (Hypoxyprobe staining) relative to vehicle” value (4T1 lung metastases) was “clear evidence of elevated hypoxia”.

In the case of `Cn1cc(C[C@H](N)C(=O)O)c2ccccc21` [1MT, 1-methyl-tryptophan], the “rejection of allogeneic mouse concepti” value [4] is listed as “could elicit T cell-dependent rejection of allogeneic mouse concepti”.

For `Cn1cc(-c2ccc3c(c2)CCN3C(=O)Cc2cccc(C(F)(F)F)c2)c2c(N)ncnc21` [GSK2606414], the blood clearance [1] is listed as “low to moderate” and the oral bioavailability [1] is listed as “good”.
